The target in the assay is T1, Signal transducer and activator of transcription 5A (Homo sapiens, UniProt P42229).
T1 sequence (P42229 whole entry): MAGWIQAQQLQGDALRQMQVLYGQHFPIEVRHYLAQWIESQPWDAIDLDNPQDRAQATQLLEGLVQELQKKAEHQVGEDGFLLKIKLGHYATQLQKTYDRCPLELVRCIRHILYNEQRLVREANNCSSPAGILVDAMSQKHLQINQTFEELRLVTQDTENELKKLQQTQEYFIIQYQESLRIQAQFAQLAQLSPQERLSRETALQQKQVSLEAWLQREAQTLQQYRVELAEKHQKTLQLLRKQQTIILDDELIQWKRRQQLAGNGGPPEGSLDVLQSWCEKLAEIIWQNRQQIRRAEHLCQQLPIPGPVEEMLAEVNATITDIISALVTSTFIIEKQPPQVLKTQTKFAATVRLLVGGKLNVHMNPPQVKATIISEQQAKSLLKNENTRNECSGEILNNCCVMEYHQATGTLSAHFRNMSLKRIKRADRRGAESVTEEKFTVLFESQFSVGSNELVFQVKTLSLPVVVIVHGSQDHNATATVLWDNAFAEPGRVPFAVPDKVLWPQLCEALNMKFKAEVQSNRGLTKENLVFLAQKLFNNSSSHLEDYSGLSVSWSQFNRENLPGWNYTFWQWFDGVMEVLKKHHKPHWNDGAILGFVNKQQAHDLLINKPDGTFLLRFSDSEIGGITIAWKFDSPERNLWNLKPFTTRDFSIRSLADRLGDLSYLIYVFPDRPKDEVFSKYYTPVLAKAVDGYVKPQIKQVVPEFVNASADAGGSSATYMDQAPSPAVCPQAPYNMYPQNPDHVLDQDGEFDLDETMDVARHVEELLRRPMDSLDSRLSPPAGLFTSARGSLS
In words: Inhibition of STAT5 phosphorylation in IL2-stimulated healthy human T cells by Western blotting. A general note: In western blotting, separated proteins are transferred to a membrane and probed.

The structures appear in SMILES notation.

Consider `O=C1NCc2c1c1c3ccccc3n3c1c1c2c2ccccc2n1C[C@@H](O)[C@@H](O)C3` [12,13-(2,3-Cis-dihyroxy-1,4-butyl)-6,7,12,13-tetrahydro-5-oxo-5H-indolo[2,3-a]pyrrolo[3,4-c]carbazole], for which the IC50 (as a rule, the concentration that gives 50% inhibition) came out at 689 nM.
